Reference: patent US20210395239A1 (Hoffmann-La Roche Inc., priority 2018, published 2021)

Key:
human TLR8 = target: T1, human TLR8 (Homo sapiens, UniProt Q9NR97); assay: HEK293-Blue-hTLR-8 cells assay (SEAP reporter, R848 stimulation); type: cell-based; conditions: HEK293-Blue-hTLR8 cells, R848, 20 hrs; read-out: HEK/hTLR8 IC50
T1 construct: host or cells: HEK293 (HEK-Blue hTLR8)
T1 sequence (Q9NR97 27-1041): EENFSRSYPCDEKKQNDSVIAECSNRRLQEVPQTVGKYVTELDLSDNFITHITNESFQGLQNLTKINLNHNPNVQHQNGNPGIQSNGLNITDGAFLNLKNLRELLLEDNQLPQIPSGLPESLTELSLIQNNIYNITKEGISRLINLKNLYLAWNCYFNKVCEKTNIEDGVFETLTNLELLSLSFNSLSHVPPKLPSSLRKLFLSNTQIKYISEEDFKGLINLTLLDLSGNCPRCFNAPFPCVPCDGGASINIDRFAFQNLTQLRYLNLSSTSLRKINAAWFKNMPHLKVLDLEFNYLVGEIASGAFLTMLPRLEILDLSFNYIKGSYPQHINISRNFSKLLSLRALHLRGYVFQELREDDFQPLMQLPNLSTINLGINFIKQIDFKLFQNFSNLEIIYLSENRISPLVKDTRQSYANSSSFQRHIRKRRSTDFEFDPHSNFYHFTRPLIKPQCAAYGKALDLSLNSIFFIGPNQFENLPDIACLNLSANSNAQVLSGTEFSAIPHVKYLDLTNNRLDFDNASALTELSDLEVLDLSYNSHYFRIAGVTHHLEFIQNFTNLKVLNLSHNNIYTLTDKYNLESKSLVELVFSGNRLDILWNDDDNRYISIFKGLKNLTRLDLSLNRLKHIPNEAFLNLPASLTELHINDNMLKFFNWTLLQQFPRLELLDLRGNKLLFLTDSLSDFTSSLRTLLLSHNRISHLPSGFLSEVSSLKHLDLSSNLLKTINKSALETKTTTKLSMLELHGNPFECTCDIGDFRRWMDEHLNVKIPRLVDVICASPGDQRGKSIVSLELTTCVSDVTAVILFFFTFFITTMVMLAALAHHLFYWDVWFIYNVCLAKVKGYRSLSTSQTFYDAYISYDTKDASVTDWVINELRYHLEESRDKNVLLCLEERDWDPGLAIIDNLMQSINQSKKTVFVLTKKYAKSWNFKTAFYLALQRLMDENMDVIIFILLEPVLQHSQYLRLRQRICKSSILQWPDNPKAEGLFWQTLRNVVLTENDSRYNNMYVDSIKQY
How it was run: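 Antagonism read as reduced R848-induced SEAP reporter secretion, detected by QUANTI-Blue absorbance at 620–655 nm after 2 h. Reporter cells were exposed to compound dilutions in DMEM/10% FBS, 1% DMSO, for 20 h at 37° C.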

CYP2C9 = target: T2, CYP2C9 (Homo sapiens, UniProt P11712); assay: CYP inhibition assay in human liver microsome, CYP2C9; type: in vitro ADME; conditions: substrate diclofenac 5 μM, first value of 2C9/2D6/3A4; for inhibition at 5 min, 10 µM: human, human liver microsomes, probe diclofenac 5 μM
T2 construct: tissue BD-Gentest 452117; host or cells: human liver microsomes
T2 sequence (P11712 whole entry): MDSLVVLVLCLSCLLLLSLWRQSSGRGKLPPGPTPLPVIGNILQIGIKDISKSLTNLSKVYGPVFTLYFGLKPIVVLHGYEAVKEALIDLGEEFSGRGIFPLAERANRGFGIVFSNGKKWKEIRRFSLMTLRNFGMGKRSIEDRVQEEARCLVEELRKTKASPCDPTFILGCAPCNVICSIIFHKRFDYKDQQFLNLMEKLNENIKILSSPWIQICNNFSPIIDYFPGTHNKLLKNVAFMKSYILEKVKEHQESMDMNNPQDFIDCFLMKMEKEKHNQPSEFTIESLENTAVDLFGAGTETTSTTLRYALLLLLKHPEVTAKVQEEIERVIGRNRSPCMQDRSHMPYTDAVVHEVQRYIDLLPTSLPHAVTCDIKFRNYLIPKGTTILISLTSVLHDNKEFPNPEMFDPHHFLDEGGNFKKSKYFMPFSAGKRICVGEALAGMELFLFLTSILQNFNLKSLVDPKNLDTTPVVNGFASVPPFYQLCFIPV
How it was run: (§1)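 Pooled human liver microsomes with a substrate for each CYP were incubated with compound at 37 °C after NADPH addition, for 5 min (CYP2D6: 10 min), then quenched with acetonitrile containing labelled metabolite standards. Metabolite/internal-standard peak area ratios were measured by RapidFire MS/MS. % inhibition was scaled between DMSO and standard-inhibitor controls.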

CYP3A4 = target: T3, CYP3A4 (Homo sapiens, UniProt P08684); assay: CYP inhibition assay in human liver microsome, CYP3A4; type: in vitro ADME; conditions: substrate midazolam 5 μM, third value of 2C9/2D6/3A4; for inhibition at 5 min, 10 µM: human, human liver microsomes, probe midazolam 5 μM
T3 construct: tissue BD-Gentest 452117; host or cells: human liver microsomes
T3 sequence (P08684 whole entry): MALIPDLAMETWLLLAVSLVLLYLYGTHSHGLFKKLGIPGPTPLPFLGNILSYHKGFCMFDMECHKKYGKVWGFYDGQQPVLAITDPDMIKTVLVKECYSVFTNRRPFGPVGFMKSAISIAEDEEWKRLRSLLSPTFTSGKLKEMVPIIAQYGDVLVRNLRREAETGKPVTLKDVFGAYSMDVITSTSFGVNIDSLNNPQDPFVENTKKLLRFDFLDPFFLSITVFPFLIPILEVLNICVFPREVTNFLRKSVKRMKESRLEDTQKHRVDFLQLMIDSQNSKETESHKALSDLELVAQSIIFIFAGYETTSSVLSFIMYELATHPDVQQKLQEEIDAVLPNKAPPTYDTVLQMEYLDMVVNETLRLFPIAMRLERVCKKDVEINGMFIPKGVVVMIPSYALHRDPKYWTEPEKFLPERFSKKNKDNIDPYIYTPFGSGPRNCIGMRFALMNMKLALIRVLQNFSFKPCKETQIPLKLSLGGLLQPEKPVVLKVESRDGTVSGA
How it was run: as §1

| SMILES | IC50 (human TLR8) [nM] | CYP (%) 2C9 inhibition (CYP2C9) [%] | CYP (%) 3A4 inhibition (CYP3A4) [%] | inhibition at 5 min, 10 µM (CYP2C9) [%] | inhibition at 5 min, 10 µM (CYP3A4) [%] |
| --- | --- | --- | --- | --- | --- |
| CO[C@H]1CN(c2nccc(N3CCN(C[C@H]4CN(c5ccc(C#N)c6ncccc56)C[C@@H](C)O4)CC3)n2)CC1N (stereo in doubt) [Example 53, 5-[(2S,6R)-2-[[4-[2-[(3S,4S)-3-amino-4-methoxy-pyrrolidin-1-yl]pyrimidin-4-yl]piperazin-1-yl]methyl]-6-methyl-morpholin-4-yl]quinoline-8-carbonitrile] | 3 | −4.5 | 7.5 | – | – |
| C[C@@H]1CN(c2ccc(C#N)c3ncccc23)C[C@H](CN2CCN(c3cncc(N4CCNCC4)c3)CC2)O1 [Example 7, 5-[(2R,6S)-2-methyl-6-[[4-(5-piperazin-1-yl-3-pyridyl)piperazin-1-yl]methyl]morpholin-4-yl]quinoline-8-carbonitrile] | 9 | – | – | 2 | 15.5 |
| C[C@@H]1CN(c2ccc(C#N)c3ncccc23)C[C@H](CN2CCN(c3ccc(N4CCNCC4)cn3)CC2)O1 [Example 8, 5-[(2R,6S)-2-methyl-6-[[4-(5-piperazin-1-yl-2-pyridyl)piperazin-1-yl]methyl]morpholin-4-yl]quinoline-8-carbonitrile] | 10 | – | – | 1 | -3.5 |
| C[C@@H]1CN(c2ccc(C#N)c3ncccc23)C[C@H](CN2CCN(c3cc(N4CCNCC4)ccn3)CC2)O1 [Example 9, 5-[(2R,6S)-2-methyl-6-[[4-(4-piperazin-1-yl-2-pyridyl)piperazin-1-yl]methyl]morpholin-4-yl]quinoline-8-carbonitrile] | 3 | – | – | -7.5 | 7.5 |
| C[C@@H]1CN(c2ccc(C#N)c3ncccc23)C[C@H](CN2CCC(C#N)(c3ccc(N4CCNCC4)cc3)CC2)O1 [Example 11, 5-[(2S,6R)-2-[[4-cyano-4-(4-piperazin-1-ylphenyl)-1-piperidyl]methyl]-6-methyl-morpholin-4-yl]quinoline-8-carbonitrile] | 13 | – | – | 0.5 | 11 |
| C[C@@H]1CN(c2ccc(C#N)c3ncccc23)C[C@H](CN2CCN(c3nccc(N4CCNCC4)n3)CC2)O1 [Example 14, 5-[(2R,6S)-2-methyl-6-[[4-(4-piperazin-1-ylpyrimidin-2-yl)piperazin-1-yl]methyl]morpholin-4-yl]quinoline-8-carbonitrile] | 3 | – | – | 0 | -2 |
| C[C@@H]1CN(c2ccc(C#N)c3ncccc23)C[C@H](CN2CCN(c3ccnc(N4CCNCC4)n3)CC2)O1 [Example 15, 5-[(2R,6S)-2-methyl-6-[[4-(2-piperazin-1-ylpyrimidin-4-yl)piperazin-1-yl]methyl]morpholin-4-yl]quinoline-8-carbonitrile] | 3 | – | – | 9 | 11.5 |
| C[C@@H]1CN(c2ccc(C#N)c3ncccc23)C[C@H](CN2CCN(c3ccc([C@@H]4CNCCO4)cc3)CC2)O1 [Example 19, 5-[(2R,6S)-2-methyl-6-[[4-[4-[(2R)-morpholin-2-yl]phenyl]piperazin-1-yl]methyl]morpholin-4-yl]quinoline-8-carbonitrile] | 12 | – | – | 11.5 | 12.5 |
| C[C@@H]1CN(c2ccc(C#N)c3ncccc23)C[C@H](CN2CCN(c3cc(N4CCN(C)CC4)ncn3)CC2)O1 [Example 21, 5-[(2R,6S)-2-methyl-6-[[4-[6-(4-methylpiperazin-1-yl)pyrimidin-4-yl]piperazin-1-yl]methyl]morpholin-4-yl]quinoline-8-carbonitrile] | 10 | – | – | -3 | -1.5 |
| C[C@@H]1CN(c2ccc(C#N)c3ncccc23)C[C@H](CN2CCN(c3ccnc(N4CCN(C)CC4)n3)CC2)O1 [Example 22, 5-((2R,6S)-2-methyl-6-((4-(2-(4-methylpiperazin-1-yl)pyrimidin-4-yl)piperazin-1-yl)methyl)morpholino)quinoline-8-carbonitrile] | 3 | – | – | 20 | -16 |
| C[C@@H]1CN(c2ccc(C#N)c3ncccc23)C[C@H](CN2CCN(c3ccnc(N[C@H]4CNC[C@H]4F)n3)CC2)O1 [Example 24, 5-[(2S,6R)-2-[[4-[2-[[(3S,4R)-4-fluoropyrrolidin-3-yl]amino]pyrimidin-4-yl]piperazin-1-yl]methyl]-6-methyl-morpholin-4-yl]quinoline-8-carbonitrile] | 11 | – | – | 3.5 | 4 |
| C[C@@H]1CN(c2ccc(C#N)c3ncccc23)C[C@H](CN2CCN(c3ccnc(N4CCNCC(O)C4)n3)CC2)O1 (stereo partly drawn) [Example 25, 5-[(2S,6R)-2-[[4-[2-(6-hydroxy-1,4-diazepan-1-yl)pyrimidin-4-yl]piperazin-1-yl]methyl]-6-methyl-morpholin-4-yl]quinoline-8-carbonitrile] | 7 | – | – | -5.5 | -4 |
| C[C@@H]1CN(c2ccc(C#N)c3ncccc23)C[C@H](CN2CCN(c3ccnc(N4CCN[C@@H](CO)C4)n3)CC2)O1 [Example 29, 5-[(2S,6R)-2-[[4-[2-[(3R)-3-(hydroxymethyl)piperazin-1-yl]pyrimidin-4-yl]piperazin-1-yl]methyl]-6-methyl-morpholin-4-yl]quinoline-8-carbonitrile] | 10 | – | – | -2 | -5.5 |
| C[C@@H]1CN(c2ccc(C#N)c3ncccc23)C[C@H](CN2CCN(c3cccc(NC4CNC4)n3)CC2)O1 [Example 38] | 11 | – | – | 20 | 20 |
| COC1CN(c2ccc(N3CCN(C[C@H]4CN(c5ccc(C#N)c6ncccc56)C[C@@H](C)O4)CC3)cn2)CC1N (stereo partly drawn) [Example 43, 5-[(2S,6R)-2-[[4-[6-(3-amino-4-methoxy-pyrrolidin-1-yl)-3-pyridyl]piperazin-1-yl]methyl]-6-methyl-morpholin-4-yl]quinoline-8-carbonitrile] | 11 | – | – | 2.5 | 16 |
| C[C@@H]1CN(c2ccc(C#N)c3ncccc23)C[C@H](CN2CCN(c3nc(N4CCNCC4)ncc3F)CC2)O1 [Example 45, 5-[(2S,6R)-2-[[4-(5-fluoro-2-piperazin-1-yl-pyrimidin-4-yl)piperazin-1-yl]methyl]-6-methyl-morpholin-4-yl]quinoline-8-carbonitrile] | 4 | – | – | -3.5 | -5 |
| C[C@@H]1CN(c2ccc(C#N)n3ncc(F)c23)C[C@H](CN2CCN(c3ccc(N[C@H]4CNC[C@H]4F)nc3)CC2)O1 [Example 167, 3-fluoro-4-[(2S,6R)-2-[[4-[6-[[(3S,4R)-4-fluoropyrrolidin-3-yl]amino]-3-pyridyl]piperazin-1-yl]methyl]-6-methyl-morpholin-4-yl]pyrazolo[1,5-a]pyridine-7-carbonitrile] | 34 | – | – | -1 | 44 |
| C[C@@H]1CN(c2ccc(C#N)n3ncc(F)c23)C[C@H](CN2CCN(c3ccc(N4C[C@H]5NCCO[C@@H]5C4)nc3)CC2)O1 [Example 168, 4-[(2S,6R)-2-[[4-[6-[(4aR,7aR)-3,4,4a,5,7,7a-hexahydro-2H-pyrrolo[3,4-b][1,4]oxazin-6-yl]-3-pyridyl]piperazin-1-yl]methyl]-6-methyl-morpholin-4-yl]-3-fluoro-pyrazolo[1,5-a]pyridine-7-carbonitrile] | 57 | – | – | -8 | 11 |
